The values that follow come from patent US20210246164A1, “PEPTIDIC PROTEIN KINASE C INHIBITORS AND USES THEREOF” (UNIVERSITE DE GENEVE, priority 2016, published 2021).

Data set [1] relates to primary human nasal epithelial cell monolayers. Briefly: Permeabilization of fluorescein-conjugated dextran (FD) across nasal epithelial monolayers (cumulative release, Papp). The class given is cell-based. The conditions noted are these: 150 minutes; for permeability of fluorescein conjugated dextran of 4 kDa (cumulative release): peptide 10 μM apical, vs control. As for the experimental part: (§1) To assess the potential effects of peptides of the invention on the permeabilization of therapeutic molecules, fluorescein-conjugated dextrans (FD) were used to as a model for assessing paracellular drug transport (apical to basolateral) across the epithelial monolayer.
(§2) To ensure that the integrity of the monolayer was maintained during the course of the experiment, trans-epithelial electrical resistance (TEER) was measured before and after these studies, as described below.
(§3) Mucilair™ human primary nasal and bronchial epithelial cells (Epithelix sarl, Geneva, Switzerland) were used (Huang et. al., 2013, Toxicol. in Vitro 27: 1151-1156).
(§4) Before each experiment, the culture medium was removed from each compartment and the monolayer was washed once with 200 μl of saline (0.9%) and once with warm Hanks' Balanced Salt Solution (HBSS) (37° C.). In the basolateral compartment, 600 μL of pre-warmed HBSS was placed and the cells were returned to the incubator at 37° C. for 30 minutes to equilibrate. After equilibration, the peptides of the invention were applied to the apical side of an epithelial monolayer 5 minutes prior to the addition of FD solution. Peptide 1 according to the invention (P1 of SEQ ID NO: 2) was tested in comparison with comparative peptides C1 (SEQ ID NO: 4) and C2 (SEQ ID NO: 5). FD having a molecular weight (MW) of 4 and 150 kDa were used.
(§5) All peptides were used at a final concentration of 10 μM. The vehicle was used as a control (CTRL). The FD solution was added to the apical compartment to make a final volume of 200 μl. Samples of 100 μL were taken from the basal compartment of each well every 30 minutes over a period of 150 minutes, with each volume being replaced with equal amount of fresh warm buffer to maintain sink condition. The fluorescence of FD was measured in black 96-well plates using a fluorescence plate reader (BioTek Synergy Mx plate reader, BioTek Instruments GmbH, Lucerne, Switzerland), using excitation and emission wavelengths of 485 and 520 nm, respectively. Cumulative release (ng) corresponds to the actual amount of drug released cumulatively and corresponds to the amount in the suspension medium at any time plus the amount of the drug lost during each sampling.
(§6) Trans-epithelial electrical resistance (TEER): After addition of 200 μl of culture medium to the apical compartment of the tissue cultures, resistance was measured across cultures with an EVOMX volt-ohm-meter (World Precision Instruments UK, Stevenage) in triplicate for each time point. The TEER values (Ω) were converted normalized by using the following formula: TEER (Ωcm^2)=(resistance value (Ω)−100 (Ω))×0.33 (cm^2), where 100Ω is the resistance of the membrane and 0.33 cm^2 is the total surface of the epithelium.
(§7) To assess the role of the membrane penetrating group (myristoyl) in peptides of the invention in the enhancing of the permeability of macromolecules through epithelial cell layers, the permeabilizing capacity of peptide P1 of the invention was compared to a comparative peptide C3 (SEQ ID NO: 6) corresponding to the same peptide without the myristoyl group. The permeabilizing capacity of a peptide P2 (SEQ ID NO: 3) of the invention was also assessed. Uptake experiments and TEER were conducted as described in Example 2.
(§8) To assess the duration of the permeabilization effect of the peptide of the invention, apparent permeability of peptides of various lengths was evaluated as follows. Apparent permeability refers to the amount of released FD at that time point when the sample is collected.
(§9) The tested Peptides, uptake experiments and TEER were as described in Example 2.
(§10) Apparent permeability of FD: The apparent permeability (Papp) of FD was calculated using equation 1: Papp=(dQ/dt)/A*C0 (1)

Data set [2] relates to primary human bronchial epithelial cell monolayers. Briefly: Permeabilization of fluorescein-conjugated dextran (FD) across bronchial epithelial monolayers (cumulative release, Papp). The settings on record: 150 minutes; for permeability of fluorescein conjugated dextran of 4 kDa (cumulative release): peptide 10 μM apical, vs control. It counts as cell-based. As for the experimental part: as §1, §2, §3, §4, §5, §6, §7, §8, §9, §10

A further data set can be described thus: in vitro. The settings on record: human, Caco-2 cells.
The test system of data set [3] is non-small cell lung cancer (NSCLC). The conditions noted are these: compared to chemotherapies; cited from earlier work.

Where a SMILES comes first, the peptide text is derived from it. Where no end group is shown, it is not given here. The star is where a group is joined. Myristoyl = CCCCCCCCCCCCCC(=O)*

Protocol for in vitro: Viability of Caco-2 cells (human intestinal epithelial cell line) was determined by a cell proliferation assay using WST-1 based colorimetric assay. […] WST-1 reagent (diluted 1:10 in cell culture medium) was added as described in the instruction manual (Roche Diagnostics GMBH, Mannheim, Germany). Following 1-3 h incubation at 37° C. with the peptides or controls, absorbance at 450 nm (reference at 690 nm) was measured by a BioTek Synergy Mx plate reader. Percentage of cell viability was calculated based on the absorbance measured relative to that of cells exposed to only culture medium (control group). Sodium dodecyl sulfate (SDS) at 2% was used as a positive control for cell toxicity.

For `CCCCCCCCCCCCCC(=O)N[C@@H](CO)C(=O)N[C@H](C(=O)N[C@@H](Cc1ccc(O)cc1)C(=O)N[C@@H](CCCNC(=N)N)C(=O)N[C@@H](CCCNC(=N)N)C(=O)NCC(=O)N[C@@H](C)C(=O)N[C@@H](CCCNC(=N)N)C(=O)N[C@@H](CCCNC(=N)N)C(=O)N[C@@H](Cc1c[nH]c2ccccc12)C(=O)N[C@@H](CCCNC(=N)N)C(=O)N[C@@H](CCCCN)C(=O)N[C@@H](CC(C)C)C(=O)O)[C@@H](C)CC` [Peptide C1, reference compound] (Myristoyl-SIYRRGARRWRKL-OH; C-terminus assumed), the “reversibility of permeabilization of FD 4 kDa (decrease in Papp overtime)” value in data set [1] (peptide 10 μM) and in data set [2] (peptide 10 μM) was “reversible” each time. In “in vitro”, the viability at 24 h, 50 µM stood at 55.2%. The compound further returned a viability at 24 h, 100 µM in “in vitro” of 34%.

Regarding `COc1cc2ncnc(Nc3ccc(F)c(Cl)c3)c2cc1OCCCN1CCOCC1` [gefitinib, N-(3-Chloro-4-fluorophenyl)-7-methoxy-6-(3-morpholinopropoxy) quinazolin-4-amine], the “progression free survival (PFS)” value in data set [3] is recorded as 7.7-12.9 months.

With “ARRWR (not fully specified (N-terminus)) [Peptide C3, same peptide as P1 without the myristoyl group, reference compound]”, the “permeability of fluorescein conjugated dextran of 4 kDa (cumulative release)” value (“permeability” for short) in data set [1] and in data set [2] was “did not show significant difference in permeabilization ability compared to the negative control” each time.

With “Myr-AKRWR (Myristoyl-AKRWR) [Peptide P2]”, the “permeability” value in data set [1] is given as “increased the permeability of the fluorescein conjugated dextran of 4 kDa in a significant manner”.

Take “N-acetyl-ARR [Peptide C2, reference compound]”: the “permeability” value in data set [1] and in data set [2] was “not differing from control” throughout.

Broadly, the viability is a per cent measure of how many cells are alive, often set against a control. A lower viability goes with more harm to the cells.
